Results published in ChEMBL document CHEMBL1201862, “PubChem BioAssay data set” (2004).
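Five compound concentrations were applied to cells in 96-well plates for 48 hours; endpoints were derived by simple linear interpolation of the resulting dose-response curve. GI50 is the concentration that inhibits growth by half.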 Calls of active or inactive are those of the source. Cut-off read from the data, not from the text of the source: active = GI50 up to about 1.1 µM and inactive = higher.

Columns and labels:
Assay in all cases: NCI-60 cell line screen, 48 h
ACHN = system: ACHN
CAKI-1 = system: CAKI-1
CCRF-CEM = system: CCRF-CEM
HCT-15 = system: HCT-15
HL-60 = system: HL-60
HOP-62 = system: HOP-62
HT-29 = system: HT-29
Malme-3M = system: Malme-3M
NCI/ADR-RES = system: NCI/ADR-RES
OVCAR-8 = system: OVCAR-8
SF-268 = system: SF-268
SF-295 = system: SF-295
SK-MEL-5 = system: SK-MEL-5
SW-620 = system: SW-620
TK-10 = system: TK-10
U-251 = system: U-251
UACC-257 = system: UACC-257
MDA-MB-231 = system: MDA-MB-231
NCI-H522 = system: NCI-H522
SK-MEL-2 = system: SK-MEL-2

Compound	GI50 (ACHN)	GI50 (CAKI-1)	GI50 (CCRF-CEM)	GI50 (HCT-15) [µM]	GI50 (HL-60)	GI50 (HOP-62)	GI50 (HT-29)	GI50 (Malme-3M)	GI50 (NCI/ADR-RES)	GI50 (OVCAR-8)	GI50 (SF-268)	GI50 (SF-295)	GI50 (SK-MEL-5)	GI50 (SW-620)	GI50 (TK-10)	GI50 (U-251)	GI50 (UACC-257)	GI50 (MDA-MB-231)	GI50 (NCI-H522)	GI50 (SK-MEL-2)
COc1cc(/C=C/c2ccc(O)c(OC)c2)cc(OC)c1	22.2 µM (inactive)	27.1 µM (inactive)	14.4 µM (inactive)	14.3	12.6 µM (inactive)	50.6 µM (inactive)	30.8 µM (inactive)	30.7 µM (inactive)	31 µM (inactive)	37.5 µM (inactive)	34.4 µM (inactive)	17.7 µM (inactive)	23.9 µM (inactive)	30.1 µM (inactive)	20.2 µM (inactive)	19.5 µM (inactive)	24.8 µM (inactive)	–	–	–
Clc1ccc(-c2nc3ccc4ccccc4c3c3c2CCCC3)cc1	–	> 100 µM (inactive)	68.4 µM (inactive)	62.8	–	> 100 µM (inactive)	44.6 µM (inactive)	> 100 µM (inactive)	> 100 µM (inactive)	> 100 µM (inactive)	> 100 µM (inactive)	> 100 µM (inactive)	> 100 µM (inactive)	> 100 µM (inactive)	> 100 µM (inactive)	94.4 µM (inactive)	> 100 µM (inactive)	> 100 µM (inactive)	> 100 µM (inactive)	> 100 µM (inactive)
CC(C)(C)C(=O)Nc1cccc(-c2ccc[nH]2)n1	> 100 µM (inactive)	> 100 µM (inactive)	> 100 µM (inactive)	> 100	–	> 100 µM (inactive)	> 100 µM (inactive)	> 100 µM (inactive)	> 100 µM (inactive)	> 100 µM (inactive)	> 100 µM (inactive)	99.8 µM (inactive)	68.7 µM (inactive)	> 100 µM (inactive)	> 100 µM (inactive)	> 70.5 µM (inactive)	> 84.9 µM (inactive)	> 65 µM (inactive)	> 75 µM (inactive)	> 100 µM (inactive)
Cc1cc(C)nc(NS(=O)(=O)c2ccc(Nc3nnc(/C=C/c4c(O)ccc5ccccc45)c(=O)n3N)cc2)n1	23 µM (inactive)	22.1 µM (inactive)	12 µM (inactive)	10.9	22.1 µM (inactive)	37.4 µM (inactive)	57.8 µM (inactive)	36.6 µM (inactive)	20 µM (inactive)	25.7 µM (inactive)	33.7 µM (inactive)	61.1 µM (inactive)	–	43.9 µM (inactive)	–	–	–	–	–	–
CN1CCN(C(=S)N(C(=O)c2ccc(Cl)cc2)c2ccccc2)CC1	> 100 µM (inactive)	–	> 10 µM (inactive)	> 100	> 100 µM (inactive)	–	> 100 µM (inactive)	> 100 µM (inactive)	–	> 100 µM (inactive)	> 100 µM (inactive)	> 100 µM (inactive)	> 100 µM (inactive)	> 100 µM (inactive)	> 100 µM (inactive)	> 100 µM (inactive)	> 100 µM (inactive)	> 100 µM (inactive)	> 100 µM (inactive)	> 100 µM (inactive)
COc1cc2nc(-c3cccs3)nc(N3C(c4ccc(O)cc4)=NNC(=O)c4ccccc43)c2cc1OC	23.7 µM (inactive)	22.2 µM (inactive)	4.99 µM (inactive)	32	–	56.5 µM (inactive)	23.1 µM (inactive)	21.1 µM (inactive)	17.7 µM (inactive)	36.1 µM (inactive)	28.7 µM (inactive)	19.5 µM (inactive)	46.8 µM (inactive)	30.4 µM (inactive)	30.5 µM (inactive)	27.8 µM (inactive)	28.4 µM (inactive)	18.9 µM (inactive)	86.9 µM (inactive)	26.9 µM (inactive)
O=C(/N=N/c1ccccc1Br)NNc1ccccc1Br	46.1 µM (inactive)	33 µM (inactive)	31 µM (inactive)	61.2	23.6 µM (inactive)	> 100 µM (inactive)	> 100 µM (inactive)	38.2 µM (inactive)	–	> 100 µM (inactive)	> 100 µM (inactive)	–	48.4 µM (inactive)	67.1 µM (inactive)	> 100 µM (inactive)	60.8 µM (inactive)	> 100 µM (inactive)	62.2 µM (inactive)	40.6 µM (inactive)	35.4 µM (inactive)
CCOP(=O)(OCC)C1CC(n2cc(C)c(=O)[nH]c2=O)OC1CO (centres undefined)	> 100 µM (inactive)	> 100 µM (inactive)	> 100 µM (inactive)	> 100	> 100 µM (inactive)	> 100 µM (inactive)	> 100 µM (inactive)	> 100 µM (inactive)	–	> 100 µM (inactive)	> 100 µM (inactive)	> 100 µM (inactive)	> 100 µM (inactive)	> 100 µM (inactive)	> 100 µM (inactive)	> 100 µM (inactive)	> 100 µM (inactive)	> 100 µM (inactive)	83.8 µM (inactive)	> 100 µM (inactive)
[N-]=[N+]=CC(=O)OCC1SCCCS1	78.9 µM (inactive)	50.4 µM (inactive)	> 100 µM (inactive)	> 100	> 100 µM (inactive)	89.7 µM (inactive)	> 100 µM (inactive)	> 100 µM (inactive)	–	–	> 100 µM (inactive)	> 100 µM (inactive)	> 100 µM (inactive)	> 100 µM (inactive)	> 100 µM (inactive)	> 100 µM (inactive)	> 100 µM (inactive)	> 100 µM (inactive)	> 100 µM (inactive)	> 100 µM (inactive)
O=C(NC(CO)Cc1ccc(Oc2cc(CC(CO)NC(=O)OCc3ccccc3)ccc2OC(=O)OCc2ccccc2)cc1)OCc1ccccc1 (centres undefined)	19.9 µM (inactive)	26 µM (inactive)	4.28 µM (inactive)	24.9	9.82 µM (inactive)	20.2 µM (inactive)	14.2 µM (inactive)	16.7 µM (inactive)	28.4 µM (inactive)	15.4 µM (inactive)	23.5 µM (inactive)	15.9 µM (inactive)	–	26.3 µM (inactive)	20.7 µM (inactive)	–	15 µM (inactive)	–	–	19.3 µM (inactive)
COC(CC1(/C=C/O[Si](C(C)C)(C(C)C)C(C)C)C(=O)N(C)c2ccccc21)OC (centres undefined)	62.5 µM (inactive)	> 100 µM (inactive)	64.7 µM (inactive)	40.9	51.8 µM (inactive)	58.1 µM (inactive)	–	–	22.9 µM (inactive)	54.3 µM (inactive)	36.6 µM (inactive)	28.6 µM (inactive)	36.8 µM (inactive)	> 100 µM (inactive)	–	51.9 µM (inactive)	47 µM (inactive)	> 100 µM (inactive)	–	> 100 µM (inactive)
Nc1nc(N)nc(-c2cnccn2)n1	> 100 µM (inactive)	> 100 µM (inactive)	> 100 µM (inactive)	> 100	–	> 100 µM (inactive)	–	> 100 µM (inactive)	> 100 µM (inactive)	> 100 µM (inactive)	> 100 µM (inactive)	> 100 µM (inactive)	–	> 100 µM (inactive)	> 100 µM (inactive)	> 100 µM (inactive)	> 100 µM (inactive)	53 µM (inactive)	> 100 µM (inactive)	> 100 µM (inactive)
O=C1CCCC2=C1C(c1ccc3c(c1)OCO3)Nc1ccc3ccccc3c12 (centres undefined)	16 µM (inactive)	> 100 µM (inactive)	> 100 µM (inactive)	> 100	–	> 100 µM (inactive)	> 100 µM (inactive)	> 100 µM (inactive)	55.1 µM (inactive)	87.5 µM (inactive)	> 100 µM (inactive)	> 100 µM (inactive)	93.5 µM (inactive)	> 100 µM (inactive)	> 100 µM (inactive)	> 100 µM (inactive)	> 100 µM (inactive)	> 100 µM (inactive)	> 100 µM (inactive)	> 100 µM (inactive)
O=C1C[C@H](c2ccccc2)O[C@@H](c2ccccc2)C1	–	> 100 µM (inactive)	> 100 µM (inactive)	> 100	–	> 100 µM (inactive)	> 100 µM (inactive)	> 100 µM (inactive)	> 100 µM (inactive)	> 100 µM (inactive)	> 100 µM (inactive)	> 100 µM (inactive)	> 100 µM (inactive)	> 100 µM (inactive)	–	> 100 µM (inactive)	> 100 µM (inactive)	> 100 µM (inactive)	–	> 100 µM (inactive)
CC/C=C/c1cc2c(cc1O)CCC1C2CC[C@@]2(C)C1CC[C@@H]2O (some centres undefined)	2.14 µM (inactive)	0.524 µM (active)	1.73 µM (inactive)	4.33	–	–	7.93 µM (inactive)	0.524 µM (active)	0.667 µM (active)	4.31 µM (inactive)	10.2 µM (inactive)	0.34 µM (active)	1.56 µM (inactive)	1.12 µM (active)	1.03 µM (active)	1.7 µM (inactive)	10.4 µM (inactive)	3.53 µM (inactive)	0.475 µM (active)	1.21 µM (inactive)
O=C1c2scc(-c3ccccc3)c2-n2cccc21	> 100 µM (inactive)	11.4 µM (inactive)	19.7 µM (inactive)	34.1	–	16.3 µM (inactive)	10.9 µM (inactive)	16.4 µM (inactive)	17.5 µM (inactive)	13.5 µM (inactive)	14.3 µM (inactive)	18.1 µM (inactive)	15.1 µM (inactive)	16.3 µM (inactive)	49.8 µM (inactive)	14.1 µM (inactive)	30.1 µM (inactive)	14.8 µM (inactive)	11.4 µM (inactive)	12.2 µM (inactive)
